Measurements taken from paper PMC3714282, “Pharmacometabolomics of Response to Sertraline and to Placebo in Major Depressive Disorder – Possible Role for Methoxyindole Pathway” (PLoS ONE, 2013).

Tested on: serum metabolites (tryptophan, tyrosine, purine pathways, antioxidants)
Assay: LCECA metabolomic profiling of serum: change from baseline at week 1 and week 4 (all, responders, non-responders)
Format: in vivo, human
Conditions: serum; for Change 5-HT / Change 5-HTP / Change 5-MTPOL / Change 7-MXAN / Change ATOCO / Change CYS / Change DIOHMAL / Change DOPAC / Change DTOCO / Change GR / Change GRMP / Change GSH / Change HGA / Change HVA / Change HX / Change KYN / Change LD / Change MEL / Change METH / Change MHPG / Change NA-5-HT / Change TRP / Change TRPOL / Change TYR / Change UA / Change VMA / Change XAN / Change XANTH / Change 3-OHKY / Change 3-OMD / Change 4-HBAC / Change 4-HPAC / Change 4-HPLA / Change 5-HIAA: log-transformed concentration; for Change in ratio 3-OHKY/5-HT, Estimate / Change in ratio 3-OHKY/5-HTP, Estimate / Change in ratio 3-OHKY/5-MTPOL, Estimate / Change in ratio 3-OHKY/MEL, Estimate / Change in ratio 3-OHKY/NA-5-HT, Estimate / Change in ratio 3-OHKY/TRP, Estimate / Change in ratio KYN/5-HT, Estimate / Change in ratio KYN/5-HTP, Estimate / Change in ratio KYN/5-MTPOL, Estimate / Change in ratio KYN/MEL, Estimate / Change in ratio KYN/NA-5-HT, Estimate / Change in ratio KYN/TRP, Estimate: pre- to post-treatment (four weeks)
Text: Study participants were outpatients, 18–65 years of age, from various clinical sites across the United States. […] A complete description of the inclusion and exclusion used in this study can be found in Table S1. The study protocol was developed in accordance with the principles of the Declaration of Helsinki. All patients provided written informed consent. The study was sponsored and monitored by Pfizer, Inc. Each site's institutional review board approved and oversaw the study. The primary outcome measure was the HAMD17, used to assess depressive symptom severity. Measures were gathered at baseline, and weeks 1 and 4 of treatment at the patient's visits. Serum samples were collected using standard protocol at baseline, week 1 and week 4 of treatment at the clinic visits. Whole blood was collected in serum collection tubes and inverted 5–8 times. Serum samples were allowed to clot at room temperature for 60 minutes and then centrifuged at 1,300×g for 15 minutes. Following centrifugation supernatant was frozen at −80°C until analysis.
Samples were analyzed using a liquid chromatography electrochemical array (LCECA) platform that has been extensively validated and used in our prior studies in neurodegenerative and psychiatric disorders [30]–[34]. The method includes multiple compounds from the tyrosine, tryptophan, sulfur amino acids and purine pathways, and markers of oxidative stress and protection (for the list of metabolites and abbreviations see Table 1). Levels of 5-Methoxytryptamine (5-MTPM) were measured using a gas chromatography time-of-flight-mass spectrometry (GCTOF-MS) platform. Samples were prepared for analysis as previously described. During the sample preparation, pools were created from equal volumes of subaliquots of all samples. Concentrations of metabolites in the individual samples were expressed as a percentage of the concentration of those metabolites in the averaged pool.
Data preprocessing: We first removed the metabolites that have more than 40% missing values. […] Principal components analysis (PCA; SIMCA-P+12.0) was used to identify outliers. The analysis was performed for each time point. […] Subjects with ≥3 standard deviations away from the center of data cloud within two principal components (PC's) scores scatter plot were considered outliers and were removed from further analysis.
These analyses were conducted separately for the sertraline and placebo groups. Between groups t-tests were used to compare baseline to one week and baseline to four week change scores between the sertraline and placebo groups.
Signatures of response to sertraline and placebo were identified by using paired t-tests to compare week 4 metabolite levels to baseline metabolite levels in the responders and non-responders to therapy. […] These analyses were also performed to evaluate changes in ratios of individual metabolites within (e.g., 5-HT/5-HTP) and between branches of tryptophan pathway (e.g., KYN/MEL).

[1] = after four weeks, sertraline group
[2] = after one week, responders to sertraline
[3] = after one week, sertraline group

CN[C@H]1CC[C@@H](c2ccc(Cl)c(Cl)c2)c2ccccc21 [Sertraline, sertraline]
Change 5-HT [1]: −1.9 | Change 5-HTP [1]: 0.12 | Change 5-MTPOL [1]: 0.13 | Change 7-MXAN [1]: 0.083 | Change ATOCO [1]: 0.63 | Change CYS [1]: −0.0014 | Change DIOHMAL [1]: 0.37 | Change DOPAC [1]: −0.014 | Change DTOCO [1]: 0.71 | Change GR [1]: 0.0002 | Change GRMP [1]: 0.052 | Change GSH [1]: 0.014 | Change HGA [1]: 0.4 | Change HVA [1]: 0.1 | Change HX [1]: −0.0057 | Change KYN [1]: 0.045 | Change LD [1]: 0.12 | Change MEL [1]: 0.49 | Change METH [1]: 0.2 | Change MHPG [1]: −0.21 | Change NA-5-HT [1]: 0.041 | Change TRP [1]: 0.07 | Change TRPOL [1]: 0.061 | Change TYR [1]: 0.13 | Change UA [1]: −0.058 | Change VMA [1]: −0.015 | Change XAN [1]: −0.16 | Change XANTH [1]: 0.047 | Change 3-OHKY [2]: -0.02 | Change 3-OMD [2]: -0.18 | Change 4-HBAC [2]: 0.49 | Change 4-HPAC [2]: 0.47 | Change 4-HPLA [2]: 0.18 | Change 5-HIAA [2]: -0.14 | Change 5-HT [2]: -0.79 | Change 5-HTP [2]: -0.06 | Change 5-MTPOL [2]: 0.15 | Change 7-MXAN [2]: -0.51 | Change ATOCO [2]: 0.4 | Change CYS [2]: 0.0024 | Change DIOHMAL [2]: 0.2 | Change DOPAC [2]: -0.048 | Change DTOCO [2]: 0.75 | Change GR [2]: 0.17 | Change GRMP [2]: -0.0083 | Change GSH [2]: -0.02 | Change HGA [2]: 0.19 | Change HVA [2]: 0.13 | Change HX [2]: -0.075 | Change KYN [2]: 0.052 | Change LD [2]: 0.13 | Change MEL [2]: 0.41 | Change METH [2]: 0.0032 | Change MHPG [2]: -0.33 | Change NA-5-HT [2]: -0.022 | Change TRP [2]: 0.044 | Change TRPOL [2]: 0.082 | Change TYR [2]: -0.027 | Change UA [2]: -0.048 | Change VMA [2]: 0.1 | Change XAN [2]: -0.21 | Change XANTH [2]: 0.033 | Change 3-OHKY [3]: −0.074 | Change 3-OMD [3]: −0.12 | Change 4-HBAC [3]: −0.085 | Change 4-HPAC [3]: 0.29 | Change 4-HPLA [3]: 0.1 | Change 5-HIAA [3]: −0.17 | Change 5-HT [3]: −0.75 | Change 5-HTP [3]: −0.11 | Change 5-MTPOL [3]: 0.041 | Change 7-MXAN [3]: −0.099 | Change ATOCO [3]: 0.21 | Change CYS [3]: −0.034 | Change DIOHMAL [3]: 0.18 | Change DOPAC [3]: −0.13 | Change DTOCO [3]: 0.3 | Change GR [3]: −0.23 | Change GRMP [3]: −0.011 | Change GSH [3]: −0.013 | Change HGA [3]: 0.28 | Change HVA [3]: 0.053 | Change HX [3]: −0.07 | Change KYN [3]: −0.045 | Change LD [3]: 0.081 | Change MEL [3]: 0.34 | Change METH [3]: 0.097 | Change MHPG [3]: −0.17 | Change NA-5-HT [3]: 0.0079 | Change TRP [3]: 0.0036 | Change TRPOL [3]: 0.033 | Change TYR [3]: 0.083 | Change UA [3]: −0.077 | Change VMA [3]: 0.11 | Change XAN [3]: −0.19 | Change XANTH [3]: 0.082 | Change in ratio 3-OHKY/5-HT, Estimate (Nonresponder to sertraline): 0.69 | Change in ratio 3-OHKY/5-HTP, Estimate (Nonresponder to sertraline): −0.099 | Change in ratio 3-OHKY/5-MTPOL, Estimate (Nonresponder to sertraline): −0.035 | Change in ratio 3-OHKY/MEL, Estimate (Nonresponder to sertraline): −0.11 | Change in ratio 3-OHKY/NA-5-HT, Estimate (Nonresponder to sertraline): 0.0038 | Change in ratio 3-OHKY/TRP, Estimate (Nonresponder to sertraline): −0.04 | Change in ratio KYN/5-HT, Estimate (Nonresponder to sertraline): 0.72 | Change in ratio KYN/5-HTP, Estimate (Nonresponder to sertraline): −0.076 | Change in ratio KYN/5-MTPOL, Estimate (Nonresponder to sertraline): −0.012 | Change in ratio KYN/MEL, Estimate (Nonresponder to sertraline): −0.085 | Change in ratio KYN/NA-5-HT, Estimate (Nonresponder to sertraline): 0.027 | Change in ratio KYN/TRP, Estimate (Nonresponder to sertraline): −0.017 | Change in ratio 3-OHKY/5-HT, Estimate (Responder to sertraline): 0.97 | Change in ratio 3-OHKY/5-HTP, Estimate (Responder to sertraline): 0.025 | Change in ratio 3-OHKY/5-MTPOL, Estimate (Responder to sertraline): −0.043 | Change in ratio 3-OHKY/MEL, Estimate (Responder to sertraline): −0.27 | Change in ratio 3-OHKY/NA-5-HT, Estimate (Responder to sertraline): −0.00032 | Change in ratio 3-OHKY/TRP, Estimate (Responder to sertraline): 0.013 | Change in ratio KYN/5-HT, Estimate (Responder to sertraline): 0.95 | Change in ratio KYN/5-HTP, Estimate (Responder to sertraline): 0.0057 | Change in ratio KYN/5-MTPOL, Estimate (Responder to sertraline): −0.062 | Change in ratio KYN/MEL, Estimate (Responder to sertraline): −0.28 | Change in ratio KYN/NA-5-HT, Estimate (Responder to sertraline): −0.019 | Change in ratio KYN/TRP, Estimate (Responder to sertraline): −0.006
